This assay has as its target GLP-1 Receptor (Homo sapiens, UniProt P43220). Put plainly: GLP-1R agonist cAMP stimulation assay. It is filed as cell-based. On the procedure: Activation of GLP-1 receptor is known to stimulate cyclic AMP (cAMP) production in cells which indicates primary coupling to the Gαs subunit of the G protein heterotrimeric complex.
To optimize functional activity directed toward Gαs coupling, a HEK293/CRE-Luc cell line developed by HDB stably expressing the GLP-1 Receptor was used. 200× concentration of compound working solutions were prepared (Agilent Technologies Bravo) with ½ log serial dilution in 384-well Echo LDV plate (Labcyte, Cat #LP-0200). 50 nL/well 200× concentration of compound working solutions were moved to 384-well white low volume plate (Greiner, Cat #784075) using Labcyte ECHO550. 1×10^5 cells/mL HEK293/GLP1R/CRE-LUC(HD Biosciences) cell suspensions prepared with assay buffer[DPBS containing 0.5 mM IBMX(Sigma, Cat #15879) and 0.1% BSA (GENVIEW, Cat #FA016-100 g)], 10 uL cell suspensions were added to each well of previous generated assay plate which already contains 50 nl compound at 200×concentration using ThermoFisher Multidrop Combi (1000 cells/well). Seal the plate and incubate at 37° C. with 5% CO2 for 30 min.
After incubation the cAMP assay signal was generated using cAMP dynamic 2 Kit (Cisbio). 5 μL cAMP-d2 working solution was added to each well, followed with 5 μL Anti-cAMP antibody-cryptate working solution added to each well using ThermoFisher Multidrop Combi. Incubate at room temperature for 1 hour protected from light. Read the fluorescence at 665 and 615 nm with Reader PerkinElmer EnVision.
% Activity=100%×(mean RLU of test sample−mean RLU of vehicle control)/(mean RLU of MAX control−mean RLU of vehicle control))

The mark [1] stands for this setting: HEK293/GLP1R/CRE-LUC cells, cAMP dynamic 2 Kit (Cisbio), 30 min incubation at 37° C., read-out: EC50.

SMILES strings stand for the structures. Like-named read-outs stand apart in the source and are kept apart here.

Chain of GLP-1 Receptor (P43220 24-463, species assumed): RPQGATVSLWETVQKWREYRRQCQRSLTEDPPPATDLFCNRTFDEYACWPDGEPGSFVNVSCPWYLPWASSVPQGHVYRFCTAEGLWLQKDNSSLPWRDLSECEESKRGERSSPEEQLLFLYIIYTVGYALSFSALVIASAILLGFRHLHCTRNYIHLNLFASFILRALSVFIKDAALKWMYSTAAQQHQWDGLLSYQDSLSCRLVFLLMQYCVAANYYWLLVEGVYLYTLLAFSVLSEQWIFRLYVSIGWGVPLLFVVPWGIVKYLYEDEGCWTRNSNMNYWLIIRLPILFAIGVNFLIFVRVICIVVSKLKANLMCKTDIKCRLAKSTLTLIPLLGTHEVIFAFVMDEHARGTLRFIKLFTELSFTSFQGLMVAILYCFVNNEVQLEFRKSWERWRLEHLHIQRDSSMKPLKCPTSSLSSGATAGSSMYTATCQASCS

For the compound `Fc1cc2c(cc1-c1nnc(C(F)(F)F)[nH]1)nc(CN1CCC(Oc3ccnc(Cc4ccc(Cl)cc4)n3)CC1)n2C[C@@H]1CCO1` [Compound 122a, 2-{[4-({2-[(4-chlorophenyl)methyl]pyrimidin-4-yl}oxy)piperidin-1-yl]methyl}-6-fluoro-1-{[(2S)-oxetan-2-yl]methyl}-5-[5-(trifluoromethyl)-4H-1,2,4-triazol-3-yl]-1H-1,3-benzodiazole], the EC50 (commonly the concentration that produces a half-maximal response) under setting [1] is 0.54 nM.

`CCOCCn1c(CN2CCC(Oc3ccnc(Cc4ccc(Cl)cc4)n3)CC2)nc2cc(-c3nnc(C(F)(F)F)[nH]3)cnc21` [Compound 123, 2-[(4-chlorophenyl)methyl]-4-[(1-{[3-(2-ethoxyethyl)-6-[5-(trifluoromethyl)-4H-1,2,4-triazol-3-yl]-3H-imidazo[4,5-b]pyridin-2-yl]methyl}piperidin-4-yl)oxy]pyrimidine] had an EC50 of 5.7 nM.

Compound `Cc1ccc(-c2ccc3c(c2)nc(CN2CCC(Oc4ccnc(Cc5ccc(Cl)cc5)n4)CC2)n3C[C@@H]2CCO2)nn1` [Compound 124a, 2-{[4-({2-[(4-chlorophenyl)methyl]pyrimidin-4-yl}oxy)piperidin-1-yl]methyl}-5-(6-methylpyridazin-3-yl)-1-{[(2S)-oxetan-2-yl]methyl}-1H-1,3-benzodiazole] showed an EC50 of 0.59 nM.

In turn, `Cc1n[nH]c(-c2ccc3c(c2)nc(CN2CCC(Oc4ccnc(Cc5ccc(Cl)cc5)n4)CC2)n3C[C@@H]2CCO2)n1` [Compound 126a, 2-{[4-({2-[(4-chlorophenyl)methyl]pyrimidin-4-yl}oxy)piperidin-1-yl]methyl}-5-(3-methyl-1H-1,2,4-triazol-5-yl)-1-{[(2S)-oxetan-2-yl]methyl}-1H-1,3-benzodiazole] came in with an EC50 of 0.32 nM.

For `Cc1ncc(-c2ccc3c(c2)nc(CN2CCC(Oc4ccnc(Cc5ccc(Cl)cc5)n4)CC2)n3C[C@@H]2CCO2)s1` [Compound 129a, 2-{[4-({2-[(4-chlorophenyl)methyl]pyrimidin-4-yl}oxy)piperidin-1-yl]methyl}-5-(2-methyl-1,3-thiazol-5-yl)-1-{[(2S)-oxetan-2-yl]methyl}-1H-1,3-benzodiazole], the response was half-maximal at 7.6 nM (EC50).

Take `Cn1cc(-c2ccc3c(c2)nc(CN2CCC(Oc4ccnc(Cc5ccc(Cl)cc5)n4)CC2)n3C[C@@H]2CCO2)nn1` [Compound 130a, 2-{[4-({2-[(4-chlorophenyl)methyl]pyrimidin-4-yl}oxy)piperidin-1-yl]methyl}-5-(1-methyl-1H-1,2,3-triazol-4-yl)-1-{[(2S)-oxetan-2-yl]methyl}-1H-1,3-benzodiazole]: the EC50 stood at 0.79 nM.

For `Cc1cc(-c2ccc3c(c2)nc(CN2CCC(Oc4ccnc(Cc5ccc(Cl)cc5)n4)CC2)n3C[C@@H]2CCO2)[nH]n1` [Compound 131a, 2-{[4-({2-[(4-chlorophenyl)methyl]pyrimidin-4-yl}oxy)piperidin-1-yl]methyl}-5-(3-methyl-1H-pyrazol-5-yl)-1-{[(2S)-oxetan-2-yl]methyl}-1H-1,3-benzodiazole], a half-maximal effect (EC50) was put at 1.8 nM.

On to `O=C(O)c1ccc2c(c1)nc(CN1CCC(Oc3ccnc(Cc4ccc(Cl)cc4)n3)CC1)n2C[C@@H]1CCO1` [Compound 134a, 2-{[4-({2-[(4-chlorophenyl)methyl]pyrimidin-4-yl}oxy)piperidin-1-yl]methyl}-1-{[(2S)-oxetan-2-yl]methyl}-1H-1,3-benzodiazole-5-carboxylic acid], for which the EC50 under setting [1] was found to be 0.053 nM.

Take `O=C(O)c1ccc2c(c1)nc(CN1CCC(Oc3ccnc(Cc4ccc(Cl)cc4F)n3)CC1)n2C[C@@H]1CCO1` [Compound 135a, 2-{[4-({2-[(4-chloro-2-fluorophenyl)methyl]pyrimidin-4-yl}oxy)piperidin-1-yl]methyl}-1-{[(2S)-oxetan-2-yl]methyl}-1H-1,3-benzodiazole-5-carboxylic acid]: the EC50 under setting [1] is 0.19 nM.

With `FC(F)(F)c1nnc(-c2ccc3c(c2)nc(CN2CCC(Oc4cccc(Cc5ccc(Cl)cc5)n4)CC2)n3C[C@@H]2CCO2)[nH]1` [Compound 136a, 2-{[4-({6-[(4-chlorophenyl)methyl]pyridin-2-yl}oxy)piperidin-1-yl]methyl}-1-{[(2S)-oxetan-2-yl]methyl}-5-[5-(trifluoromethyl)-4H-1,2,4-triazol-3-yl]-1H-1,3-benzodiazole], the EC50 was 0.22 nM.

With `Fc1cc(Cl)ccc1Cc1cccc(OC2CCN(Cc3nc4cc(-c5nnc(C(F)(F)F)[nH]5)ccc4n3C[C@@H]3CCO3)CC2)n1` [Compound 137a, 2-{[4-({6-[(4-chloro-2-fluorophenyl)methyl]pyridin-2-yl}oxy)piperidin-1-yl]methyl}-1-{[(2S)-oxetan-2-yl]methyl}-5-[5-(trifluoromethyl)-4H-1,2,4-triazol-3-yl]-1H-1,3-benzodiazole], under setting [1], the EC50 was found to be 0.14 nM.

On to `Fc1cc(Cl)ccc1Cc1nccc(OC2CCN(Cc3nc4cc(-c5nnc(C(F)(F)F)[nH]5)ncc4n3C[C@@H]3CCO3)CC2)n1` [Compound 138a, 2-[(4-chloro-2-fluorophenyl)methyl]-4-({1-[(3-{[(2S)-oxetan-2-yl]methyl}-6-[5-(trifluoromethyl)-4H-1,2,4-triazol-3-yl]-3H-imidazo[4,5-c]pyridin-2-yl)methyl]piperidin-4-yl}oxy)pyrimidine], for which the EC50 under setting [1] came out at 0.03 nM.

Compound `FC(F)(F)c1nnc(-c2cc3nc(CN4CCC(Oc5cccc(Cc6ccc(Cl)cc6)n5)CC4)n(C[C@@H]4CCO4)c3cn2)[nH]1` [Compound 140a, 2-[(4-chlorophenyl)methyl]-6-({1-[(3-{[(2S)-oxetan-2-yl]methyl}-6-[5-(trifluoromethyl)-4H-1,2,4-triazol-3-yl]-3H-imidazo[4,5-c]pyridin-2-yl)methyl]piperidin-4-yl}oxy)pyridine] gave an EC50 of 1.7 nM.

`Fc1cc(Cl)ccc1Cc1cccc(OC2CCN(Cc3nc4cc(-c5nnc(C(F)(F)F)[nH]5)cnc4n3C[C@@H]3CCO3)CC2)n1` [Compound 141a, 2-[(4-chloro-2-fluorophenyl)methyl]-6-({1-[(3-{[(2S)-oxetan-2-yl]methyl}-6-[5-(trifluoromethyl)-4H-1,2,4-triazol-3-yl]-3H-imidazo[4,5-b]pyridin-2-yl)methyl]piperidin-4-yl}oxy)pyridine]: under setting [1], the EC50 amounted to 0.13 nM.

`Fc1cc(Cl)ccc1Cc1nccc(OC2CCN(Cc3nc4cc(-c5nnc(C(F)(F)F)[nH]5)cnc4n3C[C@@H]3CCO3)CC2)n1` [Compound 142a, 2-[(4-chloro-2-fluorophenyl)methyl]-4-({1-[(3-{[(2S)-oxetan-2-yl]methyl}-6-[5-(trifluoromethyl)-4H-1,2,4-triazol-3-yl]-3H-imidazo[4,5-b]pyridin-2-yl)methyl]piperidin-4-yl}oxy)pyrimidine]: the EC50 under setting [1] was 0.048 nM.

Compound `FC(F)(F)c1nnc(-c2cnc3c(c2)nc(CN2CCC(Oc4cccc(Cc5ccc(Cl)cc5)n4)CC2)n3C[C@@H]2CCO2)[nH]1` [Compound 143a, 2-[(4-chlorophenyl)methyl]-6-({1-[(3-{[(2S)-oxetan-2-yl]methyl}-6-[5-(trifluoromethyl)-4H-1,2,4-triazol-3-yl]-3H-imidazo[4,5-b]pyridin-2-yl)methyl]piperidin-4-yl}oxy)pyridine] yielded an EC50 of 0.22 nM.

For `O=c1[nH]c(-c2cnc3c(c2)nc(CN2CCC(Oc4ccnc(Cc5ccc(Cl)cc5)n4)CC2)n3C[C@@H]2CCO2)no1` [Compound 144a, 3-(2-{[4-({2-[(4-chlorophenyl)methyl]pyrimidin-4-yl}oxy)piperidin-1-yl]methyl}-3-{[(2S)-oxetan-2-yl]methyl}-3H-imidazo[4,5-b]pyridin-6-yl)-4,5-dihydro-1,2,4-oxadiazol-5-one], under setting [1], the EC50 amounted to 1.8 nM.

As to `O=c1[nH]c(-c2cc3nc(CN4CCC(Oc5ccnc(Cc6ccc(Cl)cc6)n5)CC4)n(C[C@@H]4CCO4)c3cn2)no1` [Compound 145a, 3-(2-{[4-({2-[(4-chlorophenyl)methyl]pyrimidin-4-yl}oxy)piperidin-1-yl]methyl}-3-{[(2S)-oxetan-2-yl]methyl}-3H-imidazo[4,5-c]pyridin-6-yl)-4,5-dihydro-1,2,4-oxadiazol-5-one], under setting [1], the EC50 turned out to be 0.082 nM.

With `Fc1cnc(Cc2ccc(Cl)cc2)nc1OC1CCN(Cc2nc3cc(-c4nnc(C(F)(F)F)[nH]4)ccc3n2C[C@H]2CCOC2)CC1` [Compound 147a, 2-{[4-({2-[(4-chlorophenyl)methyl]-5-fluoropyrimidin-4-yl}oxy)piperidin-1-yl]methyl}-1-{[(3R)-oxolan-3-yl]methyl}-5-[5-(trifluoromethyl)-4H-1,2,4-triazol-3-yl]-1H-1,3-benzodiazole], the concentration for a half-maximal effect (EC50) under setting [1] was 11 nM.

`FC(F)(F)c1nnc(-c2ccc3c(c2)nc(CN2CCC(Oc4ccnc(Cc5ccc(Cl)cc5)n4)CC2)n3C[C@H]2CCOC2)[nH]1` [Compound 148a, 2-{[4-({2-[(4-chlorophenyl)methyl]pyrimidin-4-yl}oxy)piperidin-1-yl]methyl}-1-{[(3R)-oxolan-3-yl]methyl}-5-[5-(trifluoromethyl)-4H-1,2,4-triazol-3-yl]-1H-1,3-benzodiazole]: the EC50 under setting [1] turned out to be 1.4 nM.
